Target: T1, human F508del CFTR (Homo sapiens, UniProt P13569, DEL508-508)
T1 construct: expressed in transfected cells; host or cells: Fisher Rat Thyroid (FRT) cells
Experiment: CFTR-YFP High Throughput Assay
Format: cell-based
Conditions: FRT cells expressing human F508del CFTR and YFP; for Emax: EMax normalized to the positive control, read-out: % Efficacy
In short: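 Corrector mode: 24-26 h compound exposure (2 nM-40 μM, 37° C) of FRT cells carrying human F508del CFTR and YFP-H148Q/I152L, followed by washing and 60-120 min RT stimulation with 20 μM forskolin and 30 μM P3. CFTR activity is the least-squares-fitted rate of YFP quenching (Ex 500/Em 540 nm) after iodide addition.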

T1 sequence (P13569 with tags, fused parts or gaps DEL508-508): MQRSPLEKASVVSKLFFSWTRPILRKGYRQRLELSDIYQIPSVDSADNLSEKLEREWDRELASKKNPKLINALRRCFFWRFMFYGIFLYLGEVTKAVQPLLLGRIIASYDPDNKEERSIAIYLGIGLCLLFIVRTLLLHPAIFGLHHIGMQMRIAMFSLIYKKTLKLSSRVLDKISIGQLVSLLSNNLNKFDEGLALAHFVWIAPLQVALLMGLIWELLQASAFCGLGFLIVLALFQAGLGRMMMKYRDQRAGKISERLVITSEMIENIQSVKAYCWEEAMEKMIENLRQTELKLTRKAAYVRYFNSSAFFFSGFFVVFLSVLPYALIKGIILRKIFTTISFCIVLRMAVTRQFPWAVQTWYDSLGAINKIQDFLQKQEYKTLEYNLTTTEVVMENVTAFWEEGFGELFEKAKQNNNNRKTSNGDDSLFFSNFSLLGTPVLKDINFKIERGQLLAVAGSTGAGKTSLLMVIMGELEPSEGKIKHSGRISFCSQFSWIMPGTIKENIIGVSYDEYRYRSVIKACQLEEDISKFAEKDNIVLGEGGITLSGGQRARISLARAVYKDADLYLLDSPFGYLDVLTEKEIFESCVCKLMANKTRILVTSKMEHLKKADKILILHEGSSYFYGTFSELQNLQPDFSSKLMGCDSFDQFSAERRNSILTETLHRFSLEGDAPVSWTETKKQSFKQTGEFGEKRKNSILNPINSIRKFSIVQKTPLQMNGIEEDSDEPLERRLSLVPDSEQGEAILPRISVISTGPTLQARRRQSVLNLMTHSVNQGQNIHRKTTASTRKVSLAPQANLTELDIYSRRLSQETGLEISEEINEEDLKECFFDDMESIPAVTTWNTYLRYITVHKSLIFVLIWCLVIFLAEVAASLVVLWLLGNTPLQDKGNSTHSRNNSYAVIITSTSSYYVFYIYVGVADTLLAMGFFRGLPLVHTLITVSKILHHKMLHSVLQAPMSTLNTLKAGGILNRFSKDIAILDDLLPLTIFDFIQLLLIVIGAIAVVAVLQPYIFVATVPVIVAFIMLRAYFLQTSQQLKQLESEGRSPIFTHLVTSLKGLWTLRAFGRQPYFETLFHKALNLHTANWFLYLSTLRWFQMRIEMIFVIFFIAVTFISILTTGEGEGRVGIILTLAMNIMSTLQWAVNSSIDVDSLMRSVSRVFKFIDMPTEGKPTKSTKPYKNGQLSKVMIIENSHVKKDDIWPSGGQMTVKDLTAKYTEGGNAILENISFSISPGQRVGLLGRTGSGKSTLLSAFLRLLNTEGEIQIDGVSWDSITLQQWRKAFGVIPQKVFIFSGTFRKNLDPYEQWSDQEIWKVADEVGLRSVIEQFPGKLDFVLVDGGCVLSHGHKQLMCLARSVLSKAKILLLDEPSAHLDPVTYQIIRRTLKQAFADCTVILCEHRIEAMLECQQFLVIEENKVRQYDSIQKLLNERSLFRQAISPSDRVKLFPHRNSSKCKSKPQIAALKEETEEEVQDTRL

SMILES	Emax	EC50
CCN(C(=O)c1nn(-c2ccc(C)cc2)c(=O)c2c1c1ccccc1n2C)C1CC1 [Example 160, N-cyclopropyl-N-ethyl-5-methyl-4-oxo-3-(p-tolyl)-4,5-dihydro-3H-pyridazino[4,5-b]indole-1-carboxamide]	30 to 80%	–
Cc1ccc(-n2nc(C(=O)N3CCN(Cc4ccccc4)CC3)c3c4ccccc4n(C)c3c2=O)cc1 [Example 161, 1-(4-benzylpiperazine-1-carbonyl)-5-methyl-3-(p-tolyl)-3H-pyridazino[4,5-b]indol-4(5H)-one]	30 to 80%	–
CCN(C(=O)c1nn(-c2ccccc2)c(=O)c2c1c1ccccc1n2C)c1ncccn1 [Example 162, N-ethyl-5-methyl-4-oxo-3-phenyl-N-(pyrimidin-2-yl)-4,5-dihydro-3H-pyridazino[4,5-b]indole-1-carboxamide]	30 to 80%	–
CCN(C(=O)c1nn(-c2ccccc2)c(=O)c2c1c1ccccc1n2C)c1ncnc2c1cnn2C [Example 164, N-ethyl-5-methyl-N-(1-methyl-1H-pyrazolo[3,4-d]pyrimidin-4-yl)-4-oxo-3-phenyl-4,5-dihydro-3H-pyridazino[4,5-b]indole-1-carboxamide]	30 to 80%	–
CCN(C(=O)c1nn(-c2ccc(C)cc2)c(=O)c2c1c1cc(Cl)ccc1n2C)c1ccccc1 [Example 165, 8-chloro-N-ethyl-5-methyl-4-oxo-N-phenyl-3-(p-tolyl)-4,5-dihydro-3H-pyridazino[4,5-b]indole-1-carboxamide]	30 to 80%	< 10 µM
CCN(C(=O)c1nn(-c2ccc(C)cc2)c(=O)c2c1c1ccc(Cl)cc1n2C)c1ccccc1 [Example 166, 7-chloro-N-ethyl-5-methyl-4-oxo-N-phenyl-3-(p-tolyl)-4,5-dihydro-3H-pyridazino[4,5-b]indole-1-carboxamide]	30 to 80%	< 10 µM
CCN(C(=O)c1nn(-c2ccc(C)cc2)c(=O)c2c1c1ccccc1n2C)c1ccc2c(c1)OC(F)(F)O2 [Example 182, N-(2,2-difluorobenzo[d][1, 3]dioxol-5-yl)-N-ethyl-5-methyl-4-oxo-3-(p-tolyl)-4,5-dihydro-3H-pyridazino[4,5-b]indole-1-carboxamide]	30 to 80%	–
CCN(C(=O)c1nn(-c2ccc(C)cc2)c(=O)c2c1c1ccccc1n2C)c1cc(Cl)ccc1C(=O)O [Example 183, 4-chloro-2-(N-ethyl-5-methyl-4-oxo-3-(p-tolyl)-4,5-dihydro-3H-pyridazino[4,5-b]indole-1-carboxamido)benzoic acid]	30 to 80%	–
Cc1ccc(-n2nc(C(=O)Nc3cc(Cl)ccc3C(=O)O)c3c4ccccc4n(C)c3c2=O)cc1 [Example 184, 4-chloro-2-(5-methyl-4-oxo-3-(p-tolyl)-4,5-dihydro-3H-pyridazino[4,5-b]indole-1-carboxamido)benzoic acid]	30 to 80%	> 20 µM
CCN(C(=O)c1nn(C2CCOCC2)c(=O)c2c1c1ccccc1n2C)c1ccccc1 [Example 185, N-ethyl-5-methyl-4-oxo-N-phenyl-3-(tetrahydro-2H-pyran-4-yl)-4,5-dihydro-3H-pyridazino[4,5-b]indole-1-carboxamide]	30 to 80%	< 10 µM
CC(C)N(C(=O)c1nn(-c2ccccn2)c(=O)c2c1c1ccccc1n2C)c1ccccc1 [Example 186, N-isopropyl-5-methyl-4-oxo-N-phenyl-3-(pyridin-2-yl)-4,5-dihydro-3H-pyridazino[4,5-b]indole-1-carboxamide]	10 to 30%	< 10 µM
CCN(C(=O)c1nn(-c2ccc(C)cc2)c(=O)c2c1c1cc(OC)ccc1n2C)c1ccccc1 [Example 187, N-ethyl-8-methoxy-5-methyl-4-oxo-N-phenyl-3-(p-tolyl)-4,5-dihydro-3H-pyridazino[4,5-b]indole-1-carboxamide]	30 to 80%	> 20 µM
CCN(C(=O)c1nn(-c2ccc(C)cc2)c(=O)c2c1c1ccc(OC)cc1n2C)c1ccccc1 [Example 188, N-ethyl-7-methoxy-5-methyl-4-oxo-N-phenyl-3-(p-tolyl)-4,5-dihydro-3H-pyridazino[4,5-b]indole-1-carboxamide]	30 to 80%	> 20 µM
CCN(C(=O)c1nn(-c2ccc(C)cc2)c(=O)c2c1c1cccc(OC)c1n2C)c1ccccc1 [Example 189, N-ethyl-6-methoxy-5-methyl-4-oxo-N-phenyl-3-(p-tolyl)-4,5-dihydro-3H-pyridazino[4,5-b]indole-1-carboxamide]	30 to 80%	> 20 µM
CC(C)N(C(=O)c1nn(-c2ccccc2)c(=O)c2c1c1ccccc1n2C)c1ccc(Cl)cc1 [Example 190, N-(4-chlorophenyl)-N-isopropyl-5-methyl-4-oxo-3-phenyl-4,5-dihydro-3H-pyridazino[4,5-b]indole-1-carboxamide]	30 to 80%	< 10 µM
CC(C)N(C(=O)c1nn(-c2cnc3ccccc3c2)c(=O)c2c1c1ccccc1n2C)c1ccccc1 [Example 191, N-isopropyl-5-methyl-4-oxo-N-phenyl-3-(quinolin-3-yl)-4,5-dihydro-3H-pyridazino[4,5-b]indole-1-carboxamide]	30 to 80%	> 20 µM
CCN(C(=O)c1nn(-c2ccc(OC)c(Cl)c2)c(=O)c2c1c1ccccc1n2C)c1ccccn1 [Example 192, 3-(3-chloro-4-methoxyphenyl)-N-ethyl-5-methyl-4-oxo-N-(pyridin-2-yl)-4,5-dihydro-3H-pyridazino[4,5-b]indole-1-carboxamide]	30 to 80%	< 10 µM

Results, then the compound that gave them:

Emax	EC50	SMILES
30 to 80%	–	Cc1ccc(-n2nc(C(=O)N(CC(=O)O)c3ccccc3)c3c4ccccc4n(C)c3c2=O)cc1 [Example 163, 2-(5-methyl-4-oxo-N-phenyl-3-(p-tolyl)-4,5-dihydro-3H-pyridazino[4,5-b]indole-1-carboxamido)acetic acid]
30 to 80%	–	CCN(C(=O)c1nn(-c2ccccn2)c(=O)c2c1c1ccccc1n2C)c1ccccc1 [Example 167, N-ethyl-5-methyl-4-oxo-N-phenyl-3-(pyridin-2-yl)-4,5-dihydro-3H-pyridazino[4,5-b]indole-1-carboxamide]
30 to 80%	–	CCN(C(=O)c1nn(-c2cccnc2)c(=O)c2c1c1ccccc1n2C)c1ccccc1 [Example 168]
30 to 80%	–	CCN(C(=O)c1nn(-c2ccncc2)c(=O)c2c1c1ccccc1n2C)c1ccccc1 [Example 169, N-ethyl-5-methyl-4-oxo-N-phenyl-3-(pyridin-4-yl)-4,5-dihydro-3H-pyridazino[4,5-b]indole-1-carboxamide]
30 to 80%	–	CCN(C(=O)c1nn(-c2nccs2)c(=O)c2c1c1ccccc1n2C)c1ccccc1 [Example 170, N-ethyl-5-methyl-4-oxo-N-phenyl-3-(thiazol-2-yl)-4,5-dihydro-3H-pyridazino[4,5-b]indole-1-carboxamide]
10 to 30%	> 20 µM	CCN(C(=O)c1nn(-c2ncccn2)c(=O)c2c1c1ccccc1n2C)c1ccccc1 [Example 171, N-ethyl-5-methyl-4-oxo-N-phenyl-3-(pyrimidin-2-yl)-4,5-dihydro-3H-pyridazino[4,5-b]indole-1-carboxamide]
10 to 30%	–	CCN(C(=O)c1nn(-c2nc3ccccc3s2)c(=O)c2c1c1ccccc1n2C)c1ccccc1 [Example 172, 3-(benzo[d]thiazol-2-yl)-N-ethyl-5-methyl-4-oxo-N-phenyl-4,5-dihydro-3H-pyridazino[4,5-b]indole-1-carboxamide]
10 to 30%	–	CCN(C(=O)c1nn(-c2nc3ccccc3n2C)c(=O)c2c1c1ccccc1n2C)c1ccccc1 [Example 173, N-ethyl-5-methyl-3-(1-methyl-1H-benzo[d]imidazol-2-yl)-4-oxo-N-phenyl-4,5-dihydro-3H-pyridazino[4,5-b]indole-1-carboxamide]
30 to 80%	–	CCN(C(=O)c1nn(-c2ccccc2F)c(=O)c2c1c1ccccc1n2C)c1ccccc1 [Example 174, N-ethyl-3-(2-fluorophenyl)-5-methyl-4-oxo-N-phenyl-4,5-dihydro-3H-pyridazino[4,5-b]indole-1-carboxamide]
30 to 80%	> 20 µM	CCN(C(=O)c1nn(-c2ccccc2)c(=O)c2c1c1ccccc1n2C)c1cccc(F)c1 [Example 175, N-ethyl-N-(3-fluorophenyl)-5-methyl-4-oxo-3-phenyl-4,5-dihydro-3H-pyridazino[4,5-b]indole-1-carboxamide]
30 to 80%	–	CCN(C(=O)c1nn(-c2cnc3ccccc3c2)c(=O)c2c1c1ccccc1n2C)c1ccccc1 [Example 177, N-ethyl-5-methyl-4-oxo-N-phenyl-3-(quinolin-3-yl)-4,5-dihydro-3H-pyridazino[4,5-b]indole-1-carboxamide]
30 to 80%	–	CCN(C(=O)c1nn(-c2ccc(Cl)cc2)c(=O)c2c1c1ccccc1n2C)c1ccccc1 [Example 178, 3-(4-chlorophenyl)-N-ethyl-5-methyl-4-oxo-N-phenyl-4,5-dihydro-3H-pyridazino[4,5-b]indole-1-carboxamide]
30 to 80%	> 20 µM	CCN(C(=O)c1nn(-c2ccc(OC)cc2)c(=O)c2c1c1ccccc1n2C)c1ccccc1 [Example 179, N-ethyl-3-(4-methoxyphenyl)-5-methyl-4-oxo-N-phenyl-4,5-dihydro-3H-pyridazino[4,5-b]indole-1-carboxamide]
10 to 30%	–	CCN(C(=O)c1nn(-c2ccc(C)cn2)c(=O)c2c1c1ccccc1n2C)c1ccccc1 [Example 180, N-ethyl-5-methyl-3-(5-methylpyridin-2-yl)-4-oxo-N-phenyl-4,5-dihydro-3H-pyridazino[4,5-b]indole-1-carboxamide]
30 to 80%	–	CCN(C(=O)c1nn(-c2ccccc2)c(=O)c2c1c1ccccc1n2C)c1cccc(Cl)c1 [Example 181, N-(3-chlorophenyl)-N-ethyl-5-methyl-4-oxo-3-phenyl-4,5-dihydro-3H-pyridazino[4,5-b]indole-1-carboxamide]
